From US12459921B2, “Isoindoline compound, preparation method, pharmaceutical composition and use thereof” (SHANGHAI INSTITUTE OF MATERIA MEDICA, CHINESE ACADEMY OF …, priority 2018, dated 2025)
pIC50: −log10 of the molar value.

Test system: MM.1S cells
Assay: Inhibitory effect on the proliferation of MM.1S, MTS cell viability test
Assay type: cell-based
Details: Homo sapiens, MM1.S, 168 h, multiple myeloma MM.1S cells, 7 days incubation, read-out: Tumor cell inhibitory activity
Outline: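 MM.1S cells (20,000/well, RPMI 1640 with 10% FBS) exposed to 5-fold compound dilutions at 0.2% DMSO for 7 days at 37° C, 5% CO2. MTS added for 3-4 h; OD490-OD690 gave inhibition versus DMSO, IC50 fitted, mean of three experiments.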

SMILES | pIC50
N#CC1(c2ccc(Cl)cc2)CCN(C(=O)CCCOc2cccc3c2CN(C2CCC(=O)NC2=O)C3=O)CC1 (centres unmarked) [Example 84, 4-(4-chlorophenyl)-1-(4-((2-(2,6-dioxopiperidine-3-)-1-oxoisoindoline-4-)oxy)butyryl)piperidine-4-carbonitrile] | 6.00 to 7.00
N#CC1(c2ccccc2Cl)CCN(C(=O)CCCCOc2cccc3c2CN(C2CCC(=O)NC2=O)C3=O)CC1 (centres unmarked) [Example 85, 4-(2-chlorophenyl)-1-(5-((2-(2,6-dioxopiperidine-3-)-1-oxoisoindoline-4-)oxy)valeryl)piperidine-4-carbonitrile] | > 7.00
N#CC1(c2cccc(Cl)c2)CCN(C(=O)CCCCOc2cccc3c2CN(C2CCC(=O)NC2=O)C3=O)CC1 (centres unmarked) [Example 87, 4-(3-chlorophenyl)-1-(5-((2-(2,6-dioxopiperidine-3-)-1-oxoisoindoline-4-)oxy)valeryl)piperidine-4-carbonitrile] | > 7.00
N#CC1(c2ccccc2OC(F)(F)F)CCN(C(=O)CCCOc2cccc3c2CN(C2CCC(=O)NC2=O)C3=O)CC1 (centres unmarked) [Example 90, 1-(4-((2-(2,6-dioxopiperidine-3-)-1-oxoisoindoline-4-)-oxy-)butyryl)-4-(2-trifluoromethoxyphenyl)piperidine-4-carbonitrile] | 4.70 to 6.00
N#CC1(c2ccccc2Cl)CCN(CCCCc2cccc3c2CN(C2CCC(=O)NC2=O)C3=O)CC1 (centres unmarked) [Example 91, 4-(2-chlorophenyl)-1-(4-(2-(2,6-dioxopiperidine-3-)-1-oxoisoindoline-4-)butyl)piperidine-4-carbonitrile] | > 7.00
N#CC1(c2ccccc2Cl)CCN(CCCCCc2cccc3c2CN(C2CCC(=O)NC2=O)C3=O)CC1 (centres unmarked) [Example 92, 4-(2-chlorophenyl)-1-(5-(2-(2,6-oxopiperidine-3-)-1-oxoisoindoline-4-)pentyl)piperidine-4-carbonitrile] | > 7.00
N#CC1(c2cccc(Cl)c2)CCN(CCCCc2cccc3c2CN(C2CCC(=O)NC2=O)C3=O)CC1 (centres unmarked) [Example 93, 4-(3-chlorophenyl)-1-(4-(2-(2,6-dioxopiperidine-3-)-1-oxoisoindoline-4-)butyl)piperidine-4-carbonitrile] | > 7.00
N#CC1(c2cccc(OC(F)(F)F)c2)CCN(CCCCCc2cccc3c2CN(C2CCC(=O)NC2=O)C3=O)CC1 (centres unmarked) [Example 94, 1-(5-(2-(2,6-dioxopiperidine-3-)-1-oxoisoindoline-4-)pentyl)-4-(3-trifluoromethoxyphenyl) piperidine-4-carbonitrile] | > 7.00
N#CC1(c2ccc(Cl)cc2)CCN(CCCCc2cccc3c2CN(C2CCC(=O)NC2=O)C3=O)CC1 (centres unmarked) [Example 95, 4-(4-chlorophenyl)-1-(4-(2-(2,6-dioxopiperidine-3-)-1-oxoisoindoline-4-)butyl)piperidine-4-carbonitrile] | > 7.00
N#CC1(c2ccc(OC(F)(F)F)cc2)CCN(CCCCCc2cccc3c2CN(C2CCC(=O)NC2=O)C3=O)CC1 (centres unmarked) [Example 96, 1-(5-(2-(2,6-dioxopiperidine-3-)-1-oxoisoindoline-4-)pentyl)-4-(4-trifluoromethoxyphenyl)piperidine-4-carbonitrile] | > 7.00
N#CC1(c2cccc(OC(F)(F)F)c2)CCN(CCCCc2cccc3c2CN(C2CCC(=O)NC2=O)C3=O)CC1 (centres unmarked) [Example 97, 1-(4-(2-(2,6-dioxopiperidine-3-)-1-oxoisoindoline-4-)butyl)-4-(3-trifluoromethoxyphenyl) piperidine-4-carbonitrile] | > 7.00
N#CC1(c2ccccc2Cl)CCN(CCCCCCc2cccc3c2CN(C2CCC(=O)NC2=O)C3=O)CC1 (centres unmarked) [Example 98, 4-(2-chlorophenyl)-1-(6-(2-(2,6-dioxopiperidine-3-)-1-oxoisoindoline-4-)hexyl)piperidine-4-carbonitrile] | > 7.00
N#CC1(c2ccc(OC(F)(F)F)cc2)CCN(CCCCc2cccc3c2CN(C2CCC(=O)NC2=O)C3=O)CC1 (centres unmarked) [Example 99, 1-(4-(2-(2,6-dioxopiperidine-3-)-1-oxoisoindoline-4-)butyl)-4-(4-trifluoromethoxyphenyl)piperidine-4-carbonitrile] | > 7.00
N#CC1(c2cccc(Cl)c2)CCN(CCCCCCc2cccc3c2CN(C2CCC(=O)NC2=O)C3=O)CC1 (centres unmarked) [Example 100, 4-(3-chlorophenyl)-1-(6-(2-(2,6-dioxopiperidine-3-)-1-oxoisoindoline-4-)hexyl)piperidine-4-carbonitrile] | > 7.00
N#CC1(c2ccc(Cl)cc2Cl)CCN(CCCCc2cccc3c2CN(C2CCC(=O)NC2=O)C3=O)CC1 (centres unmarked) [Example 101, 4-(2,4-chlorophenyl)-1-(4-(2-(2,6-dioxopiperidine-3-)-1-oxoisoindoline-4-)butyl)piperidine-4-carbonitrile] | > 7.00
N#CC1(c2ccc(Cl)cc2)CCN(CCCCCCc2cccc3c2CN(C2CCC(=O)NC2=O)C3=O)CC1 (centres unmarked) [Example 102, 4-(4-chlorophenyl)-1-(6-(2-(2,6-dioxopiperidine-3-)-1-oxoisoindoline-4-)hexyl)piperidine-4-carbonitrile] | > 7.00
O=C1CCC(N2Cc3c(CCCCCN4CCCc5ccccc54)cccc3C2=O)C(=O)N1 (centres unmarked) [Example 103, 3-(4-(5-(3,4-dihydroquinoline-1(2H))pentyl)-1-oxoisoindoline-2-)piperidine-2,6-dione] | 6.00 to 7.00
CC1CCc2cc(F)ccc2N1CCCCCc1cccc2c1CN(C1CCC(=O)NC1=O)C2=O (centres unmarked) [Example 104, 3-(4-(5-(6-fluoro-2-methyl-3,4-dihydroquinoline-1(2H))pentyl)-1-oxoisoindoline-2-) piperidine-2,6-dione] | 6.00 to 7.00

SMILES | pIC50
O=C1CCC(N2Cc3c(CCCCCN4CCOc5ccccc54)cccc3C2=O)C(=O)N1 (centres unmarked) [Example 105, 3-(4-(5-(2,3-dihydro-4H-benzo[b][1,4]oxazine-4-)pentyl)-1-oxoisoindoline-2-)piperidine-2,6-dione] | 6.00 to 7.00
O=C1CCC(N2Cc3c(CCCCCN4CCCc5cc(Br)ccc54)cccc3C2=O)C(=O)N1 (centres unmarked) [Example 106, 3-(4-(5-(6-bromo-3,4-dihydroquinoline-1(2H))pentyl)-1-oxoisoindoline-2-)piperidine-2,6-dione] | 6.00 to 7.00
Cc1cc(OCCCCOc2cccc3c2C(=O)N(C2CCC(=O)NC2=O)C3=O)c2ccccc2n1 (centres unmarked) [Example 108, 2-(2,6-dioxopiperidine-3-)-4-(4-((2-methylquinoline-4-)oxy)butoxy)isoindoline-1,3-dione] | 4.70 to 6.00
O=C1CCC(N2Cc3c(CCCCCN4CCCc5ccc(Cl)cc54)cccc3C2=O)C(=O)N1 (centres unmarked) [Example 109, 3-(4-(5-(7-chloro-3,4-dihydroquinoline-1(2H))pentyl)-1-oxoisoindoline-2-)piperidine-2,6-dione] | 4.70 to 6.00
O=C1CCC(N2Cc3c(CCCCCN4CCOc5cc(Br)ccc54)cccc3C2=O)C(=O)N1 (centres unmarked) [Example 110, 3-(4-(5-(7-bromo-2,3-dihydro-4H-benzo[b][1,4]oxazine-4-)pentyl)-1-oxoisoindoline-2-)piperidine-2,6-dione] | > 7.00
O=C1CCC(N2Cc3c(CCCCCN4CCCCc5ccccc54)cccc3C2=O)C(=O)N1 (centres unmarked) [Example 111, 3-(1-oxo-4-(5-(2,3,4,5-tetrahydro-TH-benzo[b]azepine-1-)pentyl)isoindoline-2-)piperidine-2,6-dione] | 6.00 to 7.00
O=C1CCC(N2Cc3c(CCCCCN4CCc5cc(Br)ccc54)cccc3C2=O)C(=O)N1 (centres unmarked) [Example 112] | > 7.00
O=C1CCC(N2Cc3c(CCCCCN4CCc5ccccc5C4)cccc3C2=O)C(=O)N1 (centres unmarked) [Example 113, 3-(4-(5-(3,4-dihydroisoquinoline-2(1H)-)pentyl)-1-oxoisoindoline-2-)piperidine-2,6-dione] | 6.00 to 7.00
O=C1CCC(N2Cc3c(CCCCCN4CCCc5cc(Cl)ccc54)cccc3C2=O)C(=O)N1 (centres unmarked) [Example 115] | 6.00 to 7.00
O=C1CCC(N2Cc3c(OCCCC(=O)N4CCc5ccccc54)cccc3C2=O)C(=O)N1 (centres unmarked) [Example 116, 3-(4-(4-(indoline-1-)-4-oxobutoxy)-1-oxoisoindoline-2-)piperidine-2,6-dione] | > 7.00
O=C1CCC(N2Cc3c(OCCCC(=O)N4CCCc5ccccc54)cccc3C2=O)C(=O)N1 (centres unmarked) [Example 117, 3-(4-(4-(3,4-dihydroquinoline-1(2H)-)-4-oxobutoxy)-1-oxoisoindoline-2-)piperidine-2,6-dione] | 6.00 to 7.00
O=C1CCC(N2Cc3c(OCCCCC(=O)N4CCc5ccccc54)cccc3C2=O)C(=O)N1 (centres unmarked) [Example 118, 3-(4-((5-(indoline-1-)-5-oxopentyl)oxy)-1-oxoisoindoline-2-)piperidine-2,6-dione] | > 7.00
O=C1CCC(N2Cc3c(OCCCCC(=O)N4CCCc5ccccc54)cccc3C2=O)C(=O)N1 (centres unmarked) [Example 119, 3-(4-((5-(3,4-dihydroquinoline-1(2H)-)-5-oxopentyl)oxy)-1-oxoisoindoline-2-)piperidine-2,6-dione] | > 7.00
O=C1CCC(N2Cc3c(CCCCCCN4CCC5(CC4)OCc4ccc(Cl)cc45)cccc3C2=O)C(=O)N1 (centres unmarked) [Example 120, 3-(4-(6-(6-chloro-3H-spiro[isobenzofuran-1,4′-piperidine]-1′-)hexyl)-1-oxoisoindoline-2-)piperidine-2,6-dione] | > 7.00
O=C1CCC(N2Cc3c(CCCCCN4CCC5(CC4)C(=O)Nc4ccccc45)cccc3C2=O)C(=O)N1 (centres unmarked) [Example 121, 3-(1-oxo-4-(5-(2-oxospiro[indoline-3,4′-piperidine]-1′-)pentyl)indoline-2-)piperidine-2,6-dione] | > 7.00
O=C1CCC(N2Cc3c(CCCCCN4CCC5(CC4)OCc4ccccc45)cccc3C2=O)C(=O)N1 (centres unmarked) [Example 123, 3-(4-(5-(3H-spiro[isobenzofuran-1,4′-piperidine]-1′-)pentyl)-1-oxoisoindoline-2-)piperidine-2,6-dione] | > 7.00
O=C1CCC(N2Cc3c(OCCCCN4CCC5(CC4)OCc4ccc(Cl)cc45)cccc3C2=O)C(=O)N1 (centres unmarked) [Example 124, 3-(4-(4-(6-chloro-3H-spiro[isobenzofuran-1,4′-piperidine]-1′-)butoxy)-1-oxoisoindoline-2-)piperidine-2,6-dione] | > 7.00
